In US20260364056A1, “METHODS OF TREATMENT OF NON-PANCREATIC GASTROINTESTINAL CANCERS” (IONCTURA bv, priority 2023, published 2026):

Assays:
breast cancer = conditions: in vivo; cited from earlier work
HT-29 cells [1] = experiment: Wound healing assay; assay type: cell-based, human; conditions: 9 and 12 μM, serum-free
Protocol: (§1) Cells were seeded in a 12-well plate in 10% FBS medium and grown to reach a 80-90% confluence. Then, a scratch was made on the cell monolayer by using a p200 pipette tip. The plate was washed with sterile PBS to remove the debris and on the outer bottom of the plate were created markings with a tip marker, used as reference points. Each cell line was incubated with medium without FBS and containing increasing concentrations of Compound 1 (1-3-9-12 μM). Images were acquired at 0, 24 and 48 h by using a confocal microscope Nikon Eclipse Ti2 in bright field microscope and analysed with image-J. Image-J software was used to measure the scratched area. Cell migratory ability of wound-healing was assessed using the following formula: [(wound area at 0 h)−(wound area at indicated time)]/(wound area at 0 h).
(§2) Images were taken at time 0, 24 h and 48 h and cell migration into the cell-free region (outlined) was quantified.
(§3) Tumor progression is characterized by an enhanced cell motility and invasiveness. To expand upon the knowledge of the effects of Compound 1 on HLE, KKU-m213 and HT-29 cells, their migratory activity was assessed when treated with Compound 1 by using both, a wound healing and a transwell migration assay. Cells were seeded in a 12-well plate and, when a confluent monolayer was reached, an artificial gap was generated between the cells using a pipette tip. […]

[2] = test system: xenografted tumours of KKUM-213 cells and human cancer-associated fibroblasts; experiment: Tumour growth in vivo, mouse xenograft model of cholangiocarcinoma; conditions: 10 mg/kg twice daily, oral gavage, from 5th day, vs vehicle, n=5, Mann-Whitney P<0.05
Protocol: To further explore the activity of Compound 1 on gastrointestinal cancer cells in vivo, the effectiveness in a mouse model of cholangiocarcinoma was investigated. Xenografted tumours were produced by co-injection of KKUM-213 cells and human cancer-associated fibroblasts (CAFs). Starting from the 5th day the mice were treated twice daily with Compound 1 (10 mg/kg) or vehicle (1% (w/v) methylcellulose in water) by oral gavage. The tumour volumes were monitored twice a week until the animals were sacrificed. […] Data are presented as the mean±SD (n=5 mice per group; Mann-Whitney test:*P<0.05).

lung fibrosis = conditions: compared with GLPG1690; cited from earlier work
KKU-M213 cells [3] = experiment: Crystal violet staining and morphology under inverted light microscope; assay type: cell-based, human; conditions: 3, 9 and 12 μM, 72 h
HLE cells [4] = experiment: Wound healing assay; assay type: cell-based; conditions: Homo sapiens, serum-free, read-out: inhibition of cell migration
Protocol: as §1, §2, §3

KKU-M213 cells [5] = experiment: Wound healing assay; assay type: cell-based; conditions: Homo sapiens, serum-free, respect to control, after 24 h and 48 h, p<0.05, read-out: reduction in wound closure
Protocol: as §1, §2, §3

HT-29 cells [6] = experiment: Cell viability assay (crystal violet); assay type: cell-based, human
Protocol: (§4) Human colorectal adenocarcinoma HT29 and Caco-2 cells, hepatocellular carcinoma HLE cells, cholangiocarcinoma RBE and KKU-M213 cells were purchased from the American […] Culture Collection (ATCC, Manassas, VA, USA). The hepatocellular carcinoma cell line HLF was purchased from JCRB Cell Bank (Japan). All cell lines were cultured in Dulbecco's Modified Eagle Medium (DMEM) supplemented with 10% foetal bovine serum (FBS), 1 mM pyruvate, 25 mM HEPES, 100 U/mL penicillin-streptomycin (all from Thermo Fisher Scientific, Waltham, MA, USA), and maintained in a humidified atmosphere at 37 °C containing 5% CO2. The medium was changed every three days. Oleoyl-LPA was purchased from Avanti Polar Lipids (Birmingham, AL).
(§5) Cells were seeded in 96-well plates at a density of 2000 cells/well in 10% FBS supplemented medium. After 24 h, medium was removed, the cells washed with PBS and cultured in the presence or absence of FBS and of different concentrations of Compound land LPA. After the time set for the experiment, the cells were fixed with a 4% PFA solution and stained with 0.02% crystal violet for 10 min. Subsequently the plates have been washed with water to remove excess dye. The cell-bound dye was redissolved in 1% SDS and the optical density was measured at λ=570 with a iMark™ Microplate Absorbance Reader (Bio-rad).
(§6) FIGS. 2A and 2B show the effect of Compound 1 on cell proliferation in the absence of FBS and in the presence of 10% FBS. […] Cells were grown in serum free culture medium or in presence of 10% FBS and incubated with increasing Compound 1 concentrations or with DMSO (control cells) for 24, 48 and 72 hours. After fixation, proliferation was assessed by crystal violet staining method. *P<0.05.
(§7) To evaluate the anti-proliferative/cytotoxic effects of Compound 1, six different cancer tumour cell lines were treated developed from cholangiocarcinoma (CCA), hepatocellular carcinoma (HCC) and colorectal cancer (CRC), with increasing concentration of the Compound 1 ranging from 10 μM up to 50 μM and at different times of incubation. After 24, 48 and 72 hours of drug treatment, attached cells were fixed and stained with crystal violet dye. This method is used to evaluate the effect of chemotherapeutics or other anti-cancer drugs on cell survival and proliferation. In the first experiments, Compound 1 was administered to cells in culture medium supplemented with 10% FBS. […] To test the hypothesis that the presence of serum, and consequently the endogenous LPA, could interfere with the Compound 1 activity, all the cancer cells were treated with Compound 1 at concentration ranging from 1 μM up to 12 μM, in the presence or absence of 10% FBS.

HLE cells [7] = experiment: Cell viability assay (crystal violet); assay type: cell-based, human
Protocol: as §4, §5, §6, §7

HLF cells = experiment: Cell viability assay (crystal violet); assay type: cell-based
Protocol: as §4, §5, §6
To evaluate the anti-proliferative/cytotoxic effects of Compound 1, six different cancer tumour cell lines were treated developed from cholangiocarcinoma (CCA), hepatocellular carcinoma (HCC) and colorectal cancer (CRC), with increasing concentration of the Compound 1 ranging from 10 μM up to 50 μM and at different times of incubation. […]

ATX = conditions: cited from earlier work
[8] = 1 μM up to 12 μM, 10% FBS, 24, 48 and 72 h
[9] = 3 to 12 μM, absence of FBS, evident after 48 h, stronger after 72 h
[10] = 30 to 50 μM, medium with 10% FBS

C[C@H](NC(=O)CCc1nc2cccnc2n1Cc1ccc(OC(F)(F)F)cc1)c1ccc(Cl)cc1 [Compound 1, N-[(S)-1-(4-chloro-phenyl)-ethyl]-3-[3-(4-trifluoromethoxy-benzyl)-3H-imidazo[4,5-b]pyridin-2-yl]-propionamide]
dissemination of primary tumors (breast cancer): inhibit the dissemination of primary tumors
inhibition of wound closure (HT-29 cells [1]): significantly (p<0.05) inhibited wound closure
tumour progression (tumour volume) [2]: significantly reduces tumour progression
reduction in fibrosis score (lung fibrosis): greater reduction in fibrosis score compared with GLPG1690
morphological changes (KKU-M213 cells [3]): cells exhibit morphological changes and characteristics of apoptosis such as cell shrinkage and cytoplasmic vacuolization
inhibition at 3 µM (HLE cells [4]): 40%
inhibition at 9 µM (KKU-M213 cells [5]): ~50%
effect on cell proliferation (HT-29 cells [6]; [8]): generally the same as the control
effect of FBS on activity of Compound 1 (HT-29 cells [6]; 9 μM, 72 h, 5% FBS): completely abolishing the Compound 1 effect
cell inhibition compared to control (HT-29 cells [6]; 9 μM, 72 h, no FBS): clear difference in the cell inhibition compared to the control
effect of FBS on activity of Compound 1 (HT-29 cells [6]; 9 μM, 72 h, starting at 2% FBS): significantly (p<0.05) reduced the activity of Compound 1
cytotoxic effect / inhibition of cell proliferation (HT-29 cells [6]; [9]): significant (p<0.05) cytotoxic effect in a dose-dependent manner
cytotoxic effect (HT-29 cells [6]; [10]): significant (p<0.05) cytotoxic effect
effect on cell proliferation (HLE cells [7]; [8]): generally the same as the control
effect of FBS on activity of Compound 1 (HLE cells [7]; 9 μM, 72 h, 5% FBS): completely abolishing the Compound 1 effect
cell inhibition compared to control (HLE cells [7]; 9 μM, 72 h, no FBS): clear difference in the cell inhibition compared to the control
effect of FBS on activity of Compound 1 (HLE cells [7]; 9 μM, 72 h, starting at 2% FBS): significantly (p<0.05) reduced the activity of Compound 1
cytotoxic effect / inhibition of cell proliferation (HLE cells [7]; [9]): significant (p<0.05) cytotoxic effect in a dose-dependent manner
cytotoxic effect (HLE cells [7]; [10]): significant (p<0.05) cytotoxic effect
effect on cell proliferation (HLF cells; [8]): generally the same as the control
cytotoxic effect / inhibition of cell proliferation (HLF cells; [9]): significant (p<0.05) cytotoxic effect in a dose-dependent manner
cytotoxic effect (HLF cells; [10]): significant (p<0.05) cytotoxic effect
ATX inhibition (ATX): inhibits ATX with high selectivity
